# Measured values taken from ChEMBL document CHEMBL1151378, “Anticancer indole alkaloids of Rhazya stricta” (1981).
# Key:
# [1] = system: KB; experiment: Cytotoxicity against human KB cells; type: functional; details: read-out: ED50 (the source's name)
# [2] = system: P388; experiment: Cytotoxicity against mouse P388 cells; type: functional; details: read-out: ED50 (the source's name)
SMILES,EC50 [1] [µg/mL],EC50 [2] [µg/mL]
CCC1CCCN(CCc2c([C@H]3CCCc4c(CCN5CCCC(CC)C5)c5ccccc5n43)[nH]c3ccccc23)C1 (stereo partly drawn),0.5,0.29
CCC1CCCN(CCc2c([C@@]3(COC(C)=O)CC[C@@H](COC(C)=O)c4c(CCN5CCCC(CC)C5)c5ccccc5n43)[nH]c3ccccc23)C1 (stereo partly drawn),2.4,1.6
C/C=C1/CN2[C@H]3Cc4c([nH]c5ccccc45)[C@@H]2C[C@@H]1[C@@]3(CO)C(=O)OC [POLYNEURIDINE],> 100,> 100
C/C=C1/CN2CC[C@]34C(=C(C(=O)OC)[C@H]1C[C@H]23)Nc1ccc(O)cc14 [SEWARINE],,2.7
CCC1CCCN(CCc2c([C@@]3(CO)CC[C@@H](CO)c4c(CCN5CCCC(CC)C5)c5ccccc5n43)[nH]c3ccccc23)C1 (stereo partly drawn) [TETRAHYDROSECAMINEDIOL],0.0038,0.33
CCC1CCCN(CCc2c([C@@]3(C(=O)OC)CC[C@@H](C(=O)OC)c4c(CCN5CCCC(CC)C5)c5ccccc5n43)[nH]c3ccccc23)C1 (stereo partly drawn) [TETRAHYDROSECAMINE],0.69,0.4
C/C=C(/C=O)[C@@H]1C[C@H]2c3[nH]c4ccccc4c3CCN2C=C1C(=O)OC [VALLESIACHOTAMINE],3.56,1.1
